# Reference: patent publication US10894784B2, “Heteroarylbenzimidazole compounds” (BAYER PHARMA AKTIENGESELLSCHAFT, priority 2015, dated 2021)
# pIC50: −log10 of the molar value.
# Target: TBK1 (Homo sapiens (Human), UniProt Q9UHD2)
# Assay: TBK1 low ATP kinase assay (in vitro assay 1)
# Format: biochemical
# Conditions: in vitro assay 1, read-out: TBK1 low ATP kinase assay IC50
# Chain of TBK1 (Q9UHD2 whole entry): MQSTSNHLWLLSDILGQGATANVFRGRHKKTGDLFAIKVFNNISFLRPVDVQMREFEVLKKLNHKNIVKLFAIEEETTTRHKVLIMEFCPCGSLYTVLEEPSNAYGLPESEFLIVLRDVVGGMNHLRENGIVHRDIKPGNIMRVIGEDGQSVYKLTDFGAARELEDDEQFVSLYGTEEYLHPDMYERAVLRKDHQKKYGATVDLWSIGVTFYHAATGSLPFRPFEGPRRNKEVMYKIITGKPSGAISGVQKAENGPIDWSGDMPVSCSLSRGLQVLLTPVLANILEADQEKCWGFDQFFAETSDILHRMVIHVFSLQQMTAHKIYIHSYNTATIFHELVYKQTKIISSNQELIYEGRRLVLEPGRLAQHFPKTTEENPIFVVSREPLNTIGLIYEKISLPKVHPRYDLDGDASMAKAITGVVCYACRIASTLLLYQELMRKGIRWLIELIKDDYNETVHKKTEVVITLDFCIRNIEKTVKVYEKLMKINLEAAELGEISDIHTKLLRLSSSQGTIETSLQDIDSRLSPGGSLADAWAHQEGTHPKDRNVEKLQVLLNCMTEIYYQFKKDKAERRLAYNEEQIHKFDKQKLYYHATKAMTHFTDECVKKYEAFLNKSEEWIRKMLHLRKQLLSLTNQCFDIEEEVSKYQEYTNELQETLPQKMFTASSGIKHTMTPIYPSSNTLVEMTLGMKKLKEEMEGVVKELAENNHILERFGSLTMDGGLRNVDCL
row,Structure (SMILES),pIC50
1,"Cc1cc(-c2ccc3nc(Nc4cc(C(C)N5CCN(C(=O)C6CCC6)CC5)ccn4)[nH]c3c2)ncn1 (single isomer, unassigned) [Example 30.03.02.A, cyclobutyl{4-[(1R or 1S)-1-(2-{[6-(6-methylpyrimidin-4-yl)-1H-benzimidazol-2-yl]amino}pyridin-4-yl)ethyl]piperazin-1-yl}methanone]",8.38
2,"COc1c(-c2ccc3nc(Nc4cc(C(C)N5CCN(C(=O)C6CC6)CC5)ccn4)[nH]c3c2)ncnc1N1CCC1 (single isomer, unassigned) [Example 111.02, (4-{(1R or 1S)-1-[2-({6-[6-(azetidin-1-yl)-5-methoxypyrimidin-4-yl]-1H-benzimidazol-2-yl}amino)pyridin-4-yl]ethyl}piperazin-1-yl)(cyclopropyl)methanone]",9.00
3,"CN(C)c1ncnc(-c2ccc3nc(Nc4cc(CN5CCN(C(=O)CC(F)(F)F)CC5)ccn4)[nH]c3c2)c1Cl [Example 179.02, 1-(4-{[2-({6-[5-chloro-6-(dimethylamino)pyrimidin-4-yl]-1H-benzimidazol-2-yl}amino)pyridin-4-yl]methyl}piperazin-1-yl)-3,3,3-trifluoropropan-1-one]",5.94
4,"COc1ccc(-c2ccc3nc(Nc4cc(CN5CCN(C(=O)C6CC6)CC5)ccn4)[nH]c3c2)cn1 [Example 13.02, cyclopropyl{4-[(2-{[6-(6-methoxypyridin-3-yl)-1H-benzimidazol-2-yl]amino}pyridin-4-yl)methyl]piperazin-1-yl}methanone]",6.78
5,"CC(C)(C)OC(=O)N1CCN(Cc2ccnc(Nc3nc4ccc(-c5c(F)cncc5Cl)cc4[nH]3)c2)CC1 [Example 132.01, tert-butyl 4-[(2-{[6-(3-chloro-5-fluoropyridin-4-yl)-1H-benzimidazol-2-yl]amino}pyridin-4-yl)methyl]piperazine-1-carboxylate]",6.74
6,"CC(c1ccnc(Nc2nc3ccc(-c4ccnn4C)cc3[nH]2)c1)N1CCN(C(=O)CC(F)(F)F)CC1 (single isomer, unassigned) [Example 123.02, 3,3,3-trifluoro-1-{4-[(1R or 1S)-1-(2-{[6-(1-methyl-1H-pyrazol-5-yl)-1H-benzimidazol-2-yl]amino}pyridin-4-yl)ethyl]piperazin-1-yl}propan-1-one]",7.46
